Measurements as given in ChEMBL document CHEMBL3102795, “Discovery of 1-oxa-4,9-diazaspiro[5.5]undecane-based trisubstituted urea derivatives as highly potent soluble epoxide hydrolase inhibitors and orally active drug candidates for treating of chronic kidney diseases” (Bioorg Med Chem Lett, 2014).
Values after ≈ are worked out from the molar mass of the structure shown. Active and inactive are the calls of the source. No cut-off for these calls is given here.

Assays:
[1] = Solubility of the compound in simulated intestinal fluid compliant with Japanese pharmacopeia; assay type: ADME
[2] = target: T1, Bifunctional epoxide hydrolase 2 (Homo sapiens, UniProt P34913); experiment: Inhibition of human recombinant sEH expressed in baculovirus infected insect Sf9 cells using cyano(6-methoxynaphthalen-2-yl)methyl trans-[(3-phenyloxiran-2-yl)methyl] carbonate as substrate preincubated for 30 mins followed by substrate addition measured after 20 to 45 mins by fluorescence assay
T1 sequence (P34913 whole entry): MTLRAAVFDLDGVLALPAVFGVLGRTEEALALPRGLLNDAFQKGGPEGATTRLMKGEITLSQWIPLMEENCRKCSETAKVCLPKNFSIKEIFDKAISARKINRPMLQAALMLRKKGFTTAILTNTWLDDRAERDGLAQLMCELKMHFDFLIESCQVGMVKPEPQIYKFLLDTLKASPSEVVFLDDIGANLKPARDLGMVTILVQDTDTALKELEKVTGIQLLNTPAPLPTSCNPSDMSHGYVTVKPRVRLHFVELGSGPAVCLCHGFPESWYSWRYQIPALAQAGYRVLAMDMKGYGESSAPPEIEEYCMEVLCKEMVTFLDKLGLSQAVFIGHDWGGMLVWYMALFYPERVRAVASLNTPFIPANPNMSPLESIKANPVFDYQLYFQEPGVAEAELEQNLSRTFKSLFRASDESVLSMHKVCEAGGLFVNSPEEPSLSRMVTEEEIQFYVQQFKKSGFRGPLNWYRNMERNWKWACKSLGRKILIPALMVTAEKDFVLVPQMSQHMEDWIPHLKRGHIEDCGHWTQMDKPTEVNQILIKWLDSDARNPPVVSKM

[3] = Solubility of the compound in simulated gastric fluid compliant with Japanese pharmacopeia; assay type: ADME
[4] = target: T2, Bifunctional epoxide hydrolase 2 (Rattus norvegicus, UniProt P80299); experiment: Inhibition of rat recombinant sEH expressed in baculovirus infected insect Sf9 cells using cyano(6-methoxynaphthalen-2-yl)methyl trans-[(3-phenyloxiran-2-yl)methyl] carbonate as substrate preincubated for 30 mins followed by substrate addition measured after 20 to 45 mins by fluorescence assay
T2 sequence (P80299 whole entry): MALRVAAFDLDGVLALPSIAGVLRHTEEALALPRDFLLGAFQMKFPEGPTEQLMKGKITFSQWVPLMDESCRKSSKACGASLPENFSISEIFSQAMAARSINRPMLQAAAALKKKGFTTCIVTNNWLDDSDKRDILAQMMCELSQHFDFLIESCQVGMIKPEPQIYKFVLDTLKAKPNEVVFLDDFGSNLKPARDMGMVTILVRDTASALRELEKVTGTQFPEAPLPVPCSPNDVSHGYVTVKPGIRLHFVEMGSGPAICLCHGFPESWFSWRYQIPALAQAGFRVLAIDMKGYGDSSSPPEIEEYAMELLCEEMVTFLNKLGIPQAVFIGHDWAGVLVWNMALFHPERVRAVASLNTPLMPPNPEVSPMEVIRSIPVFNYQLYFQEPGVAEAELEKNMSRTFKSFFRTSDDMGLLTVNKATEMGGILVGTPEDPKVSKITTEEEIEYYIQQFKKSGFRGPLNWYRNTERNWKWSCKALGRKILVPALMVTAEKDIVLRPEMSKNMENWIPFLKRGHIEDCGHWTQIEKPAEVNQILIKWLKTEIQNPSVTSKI

[5] = tested on: Liver microsome; experiment: Metabolic stability in human liver microsomes measured per mg of protein; assay type: ADME
[6] = Volume of distribution at steady state in rat at 0.2 mg/kg, iv; assay type: ADME, organism-based; design: dose 0.2 mg/kg, route intravenous; details: in vivo, read-out: Vdss
[7] = tested on: Rattus norvegicus; experiment: Reduction of serum creatinine level in rat anti-glomerular basement membrane glomerulonephritis model at 30 mg/kg, po qd administered for 3 weeks; assay type: functional, organism-based; design: dose 30 mg/kg
[8] = Cmax in rat at 1 mg/kg, po; assay type: ADME, organism-based; design: dose 1 mg/kg, route oral; details: in vivo
[9] = Half life in rat at 0.2 mg/kg, iv; assay type: ADME, organism-based; design: dose 0.2 mg/kg, route intravenous; details: in vivo
[10] = Drug uptake in rat at 0.2 mg/kg, iv at 5 mins; assay type: ADME, organism-based; design: dose 0.2 mg/kg, route intravenous; details: in vivo, read-out: Drug uptake
[11] = Oral bioavailability in rat at 1 mg/kg; assay type: ADME, organism-based; details: in vivo
[12] = Total clearance in rat at 0.2 mg/kg, iv; assay type: ADME, organism-based; design: dose 0.2 mg/kg, route intravenous; details: in vivo
[13] = Tmax in rat at 1 mg/kg, po; assay type: ADME, organism-based; design: dose 1 mg/kg, route oral; details: in vivo
[14] = AUC (0 to infinity) in rat at 0.2 mg/kg, iv; assay type: ADME, organism-based; design: time infinity, dose 0.2 mg/kg, route intravenous; details: plasma
[15] = AUC (0 to infinity) in rat at 1 mg/kg, po; assay type: ADME, organism-based; design: time infinity, dose 1 mg/kg, route oral; details: plasma

| SMILES | solubility [1] [µg/mL] | IC50 [2] [nM] | solubility [3] [µg/mL] | IC50 [4] [nM] | CLint [5] [µL/min/mg] | Vd [6] [L/kg] | Activity [7] | Cmax [8] [ng/mL] | half-life [9] [h] | concentration at 5 min [10] [ng/mL] | bioavailability [11] [%] | clearance [12] [mL/min/kg] | Tmax [13] [h] | AUC(0-inf) [14] [ng·h/mL] | AUC(0-inf) [15] [ng·h/mL] |
| --- | --- | --- | --- | --- | --- | --- | --- | --- | --- | --- | --- | --- | --- | --- | --- |
| O=C(Nc1ccc(C(F)(F)F)cc1)N1CCOC2(CCN(C(=O)c3ccco3)CC2)C1 | 75 (≈ 171 µM) | 5.4 | 75 (≈ 171 µM) | – | – | – | – | – | – | – | – | – | – | – | – |
| O=C(Nc1ccc(OC(F)(F)F)cc1)N1CCOC2(CCN(C(=O)c3c(F)cccc3F)CC2)C1 | 39 (≈ 78.1 µM) | 0.7 | 44 (≈ 88.1 µM) | 18.5 | 86 | – | – | – | – | – | – | – | – | – | – |
| O=C(Nc1ccc(OC(F)(F)F)cc1)N1CCOC2(CCN(C(=O)c3c[nH]nc3C3CC3)CC2)C1 | 92 (≈ 186 µM) | 1.1 | 93 (≈ 188 µM) | 96.9 | 35 | – | – | – | – | – | – | – | – | – | – |
| O=C(Cc1ccccn1)N1CCC2(CC1)CN(C(=O)Nc1ccc(OC(F)(F)F)cc1)CCO2 | 90 (≈ 188 µM) | 0.7 | 92 (≈ 192 µM) | > 20 | 132 | – | – | – | – | – | – | – | – | – | – |
| O=C(Nc1ccc(C(F)(F)F)cc1)N1CCOC2(CCN(C(=O)c3ccccc3Cl)CC2)C1 | 12 (≈ 24.9 µM) | 1.4 | 10 (≈ 20.8 µM) | 13 | 48 | – | – | – | – | – | – | – | – | – | – |
| O=C(Nc1ccc(OC(F)(F)F)cc1)N1CCOC2(CCN(C(=O)C3(c4ccccc4)CC3)CC2)C1 | 33 (≈ 65.5 µM) | 0.4 | 37 (≈ 73.5 µM) | 28 | 228 | – | – | – | – | – | – | – | – | – | – |
| O=C(Nc1ccc(OC(F)(F)F)cc1)N1CCC2(CC1)CN(C(=O)c1c(F)cccc1F)CCO2 | 46 (≈ 92.1 µM) | 5.4 | 52 (≈ 104 µM) | – | – | – | – | – | – | – | – | – | – | – | – |
| COc1ccccc1CC(=O)N1CCC2(CC1)CN(C(=O)Nc1ccc(OC(F)(F)F)cc1)CCO2 | 59 (≈ 116 µM) | 0.5 | 66 (≈ 130 µM) | 71.6 | 461 | – | – | – | – | – | – | – | – | – | – |
| O=C(Nc1ccc(C(F)(F)F)cc1)N1CCOC2(CCN(C(=O)c3ccccn3)CC2)C1 | 83 (≈ 185 µM) | 4.2 | 85 (≈ 190 µM) | – | – | – | – | – | – | – | – | – | – | – | – |
| O=C(Nc1ccc(C(F)(F)F)cc1)N1CCOC2(CCN(C(=O)c3ccccc3)CC2)C1 | 63 (≈ 141 µM) | 3.2 | 62 (≈ 139 µM) | – | – | – | – | – | – | – | – | – | – | – | – |
| O=C(Nc1ccc(C(F)(F)F)cc1)N1CCOC2(CCN(C(=O)c3c(F)cccc3F)CC2)C1 | 38 (≈ 78.6 µM) | 1.3 | 43 (≈ 88.9 µM) | 19.1 | 93 | – | – | – | – | – | – | – | – | – | – |
| O=C(Nc1ccc(OC(F)(F)F)cc1)N1CCOC2(CCN(C(=O)c3ccccc3F)CC2)C1 | 62 (≈ 129 µM) | 1.1 | 71 (≈ 147 µM) | 9.3 | 30 | 3.56 | Active | 20.4 | 2.63 | 71 | 35.4 | 19.3 | 1 | 173 | 306 |
| Cc1cc(C(=O)N2CCC3(CC2)CN(C(=O)Nc2ccc(OC(F)(F)F)cc2)CCO3)no1 | 83 (≈ 177 µM) | 1.4 | 84 (≈ 179 µM) | 25.7 | 47 | 3.31 | – | 9.58 | 1.17 | 77.7 | 24.1 | 36.9 | 2 | 90.2 | 123 |
